{"source": "patent US4929635A", "about": "“New derivatives of 4-vinyl benzoic acid, process for their preparation and their uses in therapeutics and as ligands” (Laboratoires Chauvin-Blache, priority 1984, dated 1990)", "data": [{"biological_target": "T1, cytosolic receptor of retinoic acid (C.R.A.B.P.) of rat testicles (Rattus norvegicus, UniProt P62966)", "T1 construct": "to obtain the cytosol; from tissue; host or cells: rat testicles, 105000×g cytosol", "T1 sequence (P62966 whole entry)": "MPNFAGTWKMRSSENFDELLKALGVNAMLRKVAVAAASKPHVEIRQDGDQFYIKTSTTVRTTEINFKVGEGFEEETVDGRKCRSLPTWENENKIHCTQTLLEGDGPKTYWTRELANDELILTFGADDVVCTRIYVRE", "experiment": "Affinity for the cytosolic receptor of retinoic acid (C.R.A.B.P.) of rat testicles: inhibition of specific linking of tritiated retinoic acid", "type": "binding", "conditions": "ligand 4 μM; tritiated retinoic acid 20 nM; rat testicle cytosol 2 mg/ml; 16 h at 4° C., pH 7.4; unmarked retinoic acid = 100% inhibition", "description": "Affinity for the cytosolic receptor of retinoic acid (C.R.A.B.P.) of rat testicles\nThe affinity of the compounds of the formula I for the C.R.A.B.P. receptor is determined by measurement of the inhibition of the specific linking of tritiated retinoic acid (*AR) by the various compounds according to the method of ONG and CHYTIL (J. Biol. Chem., 1975, 250, 6113) modified:\nThe rat testicles thawed to 4° C. are placed in Tris-HCl 50 mM, DTE 2 mM buffer, pH 7.4, then ground in a Potter Teflon/glass grinder (three times at 800 rpm). The ground product is centrifuged at 4000×g for 10 min at 4° C.\nThe supernatant liquor is then centrifuged for 60 min at 105000×g at 4° C. to obtain the cytosol. The final protein concentration of the cytosol is adjusted to 2 mg/ml.\n200 μl of cytosol are incubated for 16 h at 4° C. in the presence of tritiated retinoic acid 20 nM (specific activity: 30 Ci/mmole), in the presence of the ligands to be tested at the concentration of 4 μM.\nThe incubations are followed by treatment with charcoal-dextran (1%-0.0025%) for 30 min at 4° C. The bound radioactivity is determined by counting in liquid scintillation.", "units": {"inhibition at 4 µM": "%"}, "values": [{"smiles": "C/C(=C\\c1ccc(C(=O)O)cc1)c1cc(C(C)C)cs1", "note": "[Compound 13]", "inhibition at 4 µM": 72.5}, {"smiles": "C/C(=C\\c1ccc(C(=O)O)cc1)c1ccc(C(C)C)cc1", "note": "[Compound 3, (E)-4-[2-(4-isopropylphenyl)propenyl]benzoic acid]", "inhibition at 4 µM": 68.5}, {"smiles": "C/C(=C\\c1ccc(C(=O)O)cc1)c1ccccc1", "note": "[Compound 1]", "inhibition at 4 µM": 18.9}, {"smiles": "C/C(=C\\c1ccc(C(=O)N2CCN(C)CC2)cc1)c1ccc(C(C)C)cc1", "note": "[Compound 11]", "inhibition at 4 µM": 27.5}, {"smiles": "C/C(=C\\c1ccc(C(=O)O)cc1)c1cccc(C(C)C)c1", "note": "[Compound 12]", "inhibition at 4 µM": 67.5}, {"smiles": "C/C(=C\\c1ccc(C(=O)O)cc1)c1ccc(C(C)C)s1", "note": "[Compound 14]", "inhibition at 4 µM": 75}, {"smiles": "C/C(=C\\c1ccc(C(=O)O)cc1)c1cccs1", "note": "[Compound 9]", "inhibition at 4 µM": 18.5}]}]}
